{
  "source": "ChEMBL document CHEMBL1240316",
  "about": "“An oxidation-sensing mechanism is used by the global regulator MgrA in Staphylococcus aureus” (2006)",
  "key": {"Staphylococcus aureus [1]": {"system": "Staphylococcus aureus", "test": "Antimicrobial activity against Staphylococcus aureus assessed as visible growth at 0.35 ug/ml after 24 hrs in presence of 20 uM paraquat", "assay_type": "functional, organism-based"}, "Staphylococcus aureus [2]": {"system": "Staphylococcus aureus", "test": "Antimicrobial activity against Staphylococcus aureus assessed as visible growth at 0.20 ug/ml after 24 hrs in presence of 100 uM hydrogen peroxide", "assay_type": "functional, organism-based"}, "Staphylococcus aureus [3]": {"system": "Staphylococcus aureus", "test": "Antimicrobial activity against Staphylococcus aureus expressing mgrA C12S mutant gene harboring plasmid Pyj335 assessed as visible growth at 0.65 ug/ml after 24 hrs", "assay_type": "functional, organism-based"}, "Staphylococcus aureus [4]": {"system": "Staphylococcus aureus", "test": "Antimicrobial activity against Staphylococcus aureus expressing mgrA C12S mutant gene assessed as visible growth at 0.20 ug/ml after 24 hrs in presence of 25 uM paraquat", "assay_type": "functional, organism-based"}, "Staphylococcus aureus [5]": {"system": "Staphylococcus aureus", "test": "Antimicrobial activity against Staphylococcus aureus expressing mgrA C12S mutant gene harboring plasmid Pyj335 assessed as visible growth at 0.45 ug/ml after 24 hrs", "assay_type": "functional, organism-based"}, "Staphylococcus aureus [6]": {"system": "Staphylococcus aureus", "test": "Antimicrobial activity against Staphylococcus aureus assessed as visible growth at 0.65 ug/ml after 24 hrs in presence of 20 uM paraquat", "assay_type": "functional, organism-based"}, "Staphylococcus aureus [7]": {"system": "Staphylococcus aureus", "test": "Antimicrobial activity against Staphylococcus aureus expressing mgrA C12S mutant gene harboring Pyj335-His-mgrA assessed as visible growth at 0.25 ug/ml after 24 hrs in presence of 20 uM paraquat", "assay_type": "functional, organism-based"}, "Staphylococcus aureus [8]": {"system": "Staphylococcus aureus", "test": "Antimicrobial activity against Staphylococcus aureus expressing mgrA C12S mutant gene harboring plasmid Pyj335 assessed as visible growth at 0.20 ug/ml after 24 hrs in presence of 100 uM hydrogen peroxide", "assay_type": "functional, organism-based"}, "Staphylococcus aureus [9]": {"system": "Staphylococcus aureus", "test": "Antimicrobial activity against Staphylococcus aureus expressing mgrA C12S mutant gene harboring plasmid Pyj335 assessed as visible growth at 0.35 ug/ml after 24 hrs in presence of 20 uM paraquat", "assay_type": "functional, organism-based"}, "Staphylococcus aureus [10]": {"system": "Staphylococcus aureus", "test": "Antimicrobial activity against Staphylococcus aureus expressing mgrA C12S mutant gene harboring plasmid Pyj335 assessed as visible growth at 0.25 ug/ml after 24 hrs in presence of 20 uM paraquat", "assay_type": "functional, organism-based"}, "Staphylococcus aureus [11]": {"system": "Staphylococcus aureus", "test": "Antimicrobial activity against Staphylococcus aureus expressing mgrA C12S mutant gene harboring plasmid Pyj335 assessed as visible growth at 0.65 ug/ml after 24 hrs in presence of 20 uM paraquat", "assay_type": "functional, organism-based"}, "Staphylococcus aureus [12]": {"system": "Staphylococcus aureus", "test": "Antimicrobial activity against Staphylococcus aureus expressing mgrA C12S mutant gene assessed as visible growth at 0.55 ug/ml after 24 hrs in presence of 20 uM paraquat", "assay_type": "functional, organism-based"}, "Staphylococcus aureus [13]": {"system": "Staphylococcus aureus", "test": "Antimicrobial activity against Staphylococcus aureus assessed as visible growth at 0.45 ug/ml after 24 hrs", "assay_type": "functional, organism-based"}, "Staphylococcus aureus [14]": {"system": "Staphylococcus aureus", "test": "Antimicrobial activity against Staphylococcus aureus expressing mgrAC12S mutant gene assessed as visible growth at 0.20 ug/ml after 24 hrs in presence of 100 uM hydrogen peroxide", "assay_type": "functional, organism-based"}, "Staphylococcus aureus [15]": {"system": "Staphylococcus aureus", "test": "Antimicrobial activity against Staphylococcus aureus assessed as visible growth at 0.65 ug/ml after 24 hrs", "assay_type": "functional, organism-based"}, "Staphylococcus aureus [16]": {"system": "Staphylococcus aureus", "test": "Antimicrobial activity against Staphylococcus aureus expressing mgrA C12S mutant gene harboring Pyj335-His-mgrA assessed as visible growth at 0.20 ug/ml after 24 hrs in presence of 100 uM hydrogen peroxide", "assay_type": "functional, organism-based"}, "Staphylococcus aureus [17]": {"system": "Staphylococcus aureus", "test": "Antimicrobial activity against Staphylococcus aureus expressing mgrA C12S mutant gene harboring plasmid Pyj335 assessed as visible growth at 0.55 ug/ml after 24 hrs in presence of 20 uM paraquat", "assay_type": "functional, organism-based"}, "Staphylococcus aureus [18]": {"system": "Staphylococcus aureus", "test": "Antimicrobial activity against Staphylococcus aureus expressing mgrA C12S mutant gene assessed as visible growth at 0.65 ug/ml after 24 hrs in presence of 20 uM paraquat", "assay_type": "functional, organism-based"}, "Staphylococcus aureus [19]": {"system": "Staphylococcus aureus", "test": "Antimicrobial activity against Staphylococcus aureus expressing mgrA C12S mutant gene harboring Pyj335-His-mgrA assessed as visible growth at 0.20 ug/ml after 24 hrs", "assay_type": "functional, organism-based"}, "Staphylococcus aureus [20]": {"system": "Staphylococcus aureus", "test": "Antimicrobial activity against Staphylococcus aureus expressing mgrA C12S mutant gene assessed as visible growth at 0.75 ug/ml after 24 hrs in presence of 20 uM paraquat", "assay_type": "functional, organism-based"}, "Staphylococcus aureus [21]": {"system": "Staphylococcus aureus", "test": "Antimicrobial activity against Staphylococcus aureus assessed as visible growth at 1.4 ug/ml after 24 hrs", "assay_type": "functional, organism-based"}, "Staphylococcus aureus [22]": {"system": "Staphylococcus aureus", "test": "Antimicrobial activity against Staphylococcus aureus assessed as visible growth at 2.6 ug/ml after 24 hrs", "assay_type": "functional, organism-based"}, "Staphylococcus aureus [23]": {"system": "Staphylococcus aureus", "test": "Antimicrobial activity against Staphylococcus aureus expressing mgrA C12S mutant gene harboring plasmid Pyj335 assessed as visible growth at 2.6 ug/ml after 24 hrs in presence of 20 uM paraquat", "assay_type": "functional, organism-based"}, "Staphylococcus aureus [24]": {"system": "Staphylococcus aureus", "test": "Antimicrobial activity against Staphylococcus aureus assessed as visible growth at 1.1 ug/ml after 24 hrs in presence of 100 uM hydrogen peroxide", "assay_type": "functional, organism-based"}, "Staphylococcus aureus [25]": {"system": "Staphylococcus aureus", "test": "Antimicrobial activity against Staphylococcus aureus expressing mgrA C12S mutant gene harboring plasmid Pyj335 assessed as visible growth at 1.1 ug/ml after 24 hrs in presence of 25 uM paraquat", "assay_type": "functional, organism-based"}, "Staphylococcus aureus [26]": {"system": "Staphylococcus aureus", "test": "Antimicrobial activity against Staphylococcus aureus expressing mgrA C12S mutant gene harboring plasmid Pyj335 assessed as visible growth at 2.2 ug/ml after 24 hrs", "assay_type": "functional, organism-based"}, "Staphylococcus aureus [27]": {"system": "Staphylococcus aureus", "test": "Antimicrobial activity against Staphylococcus aureus expressing mgrA C12S mutant gene harboring plasmid Pyj335 assessed as visible growth at 1 ug/ml after 24 hrs", "assay_type": "functional, organism-based"}, "Staphylococcus aureus [28]": {"system": "Staphylococcus aureus", "test": "Antimicrobial activity against Staphylococcus aureus assessed as visible growth at 0.6 ug/ml after 24 hrs in presence of 20 uM paraquat", "assay_type": "functional, organism-based"}, "Staphylococcus aureus [29]": {"system": "Staphylococcus aureus", "test": "Antimicrobial activity against Staphylococcus aureus expressing mgrA C12S mutant gene assessed as visible growth at 0.6 ug/ml after 24 hrs", "assay_type": "functional, organism-based"}, "Staphylococcus aureus [30]": {"system": "Staphylococcus aureus", "test": "Antimicrobial activity against Staphylococcus aureus expressing mgrA C12S mutant gene harboring plasmid Pyj335 assessed as visible growth at 0.6 ug/ml after 24 hrs in presence of 20 uM paraquat", "assay_type": "functional, organism-based"}, "Staphylococcus aureus [31]": {"system": "Staphylococcus aureus", "test": "Antimicrobial activity against Staphylococcus aureus expressing mgrA C12S mutant gene harboring plasmid Pyj335 assessed as visible growth at 1.8 ug/ml after 24 hrs", "assay_type": "functional, organism-based"}, "Staphylococcus aureus [32]": {"system": "Staphylococcus aureus", "test": "Antimicrobial activity against Staphylococcus aureus expressing mgrA C12S mutant gene harboring Pyj335-His-mgrA assessed as visible growth at 2.6 ug/ml after 24 hrs in presence of 20 uM paraquat", "assay_type": "functional, organism-based"}, "Staphylococcus aureus [33]": {"system": "Staphylococcus aureus", "test": "Antimicrobial activity against Staphylococcus aureus expressing mgrA C12S mutant gene harboring plasmid Pyj335 assessed as visible growth at 1 ug/ml after 24 hrs in presence of 20 uM paraquat", "assay_type": "functional, organism-based"}, "Staphylococcus aureus [34]": {"system": "Staphylococcus aureus", "test": "Antimicrobial activity against Staphylococcus aureus expressing mgrA C12S mutant gene harboring plasmid Pyj335 assessed as visible growth at 1.4 ug/ml after 24 hrs in presence of 20 uM paraquat", "assay_type": "functional, organism-based"}, "Staphylococcus aureus [35]": {"system": "Staphylococcus aureus", "test": "Antimicrobial activity against Staphylococcus aureus expressing mgrA C12S mutant gene harboring Pyj335-His-mgrA C12S assessed as visible growth at 1.1 ug/ml after 24 hrs", "assay_type": "functional, organism-based"}, "Staphylococcus aureus [36]": {"system": "Staphylococcus aureus", "test": "Antimicrobial activity against Staphylococcus aureus expressing mgrA C12S mutant gene assessed as visible growth at 2.6 ug/ml after 24 hrs in presence of 20 uM paraquat", "assay_type": "functional, organism-based"}, "Staphylococcus aureus [37]": {"system": "Staphylococcus aureus", "test": "Antimicrobial activity against Staphylococcus aureus expressing mgrAC12S mutant gene harboring plasmid Pyj335-His-mgrA C12S assessed as highest concentration at which growth was visible after 24 hrs", "assay_type": "functional"}, "Staphylococcus aureus [38]": {"system": "Staphylococcus aureus", "test": "Antimicrobial activity against Staphylococcus aureus expressing mgrA C12S mutant gene assessed as visible growth at 1.4 ug/ml after 24 hrs", "assay_type": "functional, organism-based"}},
  "note": "Activity calls are given as the source filed them. No cut-off for these calls is given here.",
  "data": [
    {"smiles": "O=C(O)c1cn(C2CC2)c2cc(N3CCNCC3)c(F)cc2c1=O", "note": "[CIPROFLOXACIN]", "values": [
      {"measurement": "Activity", "setting": "Staphylococcus aureus [1]", "value": "inactive"},
      {"measurement": "Activity", "setting": "Staphylococcus aureus [2]", "value": "Active"},
      {"measurement": "Activity", "setting": "Staphylococcus aureus [3]", "value": "inactive"},
      {"measurement": "Activity", "setting": "Staphylococcus aureus [4]", "value": "inactive"},
      {"measurement": "Activity", "setting": "Staphylococcus aureus [5]", "value": "inactive"},
      {"measurement": "Activity", "setting": "Staphylococcus aureus [6]", "value": "Active"},
      {"measurement": "Activity", "setting": "Staphylococcus aureus [7]", "value": "inactive"},
      {"measurement": "Activity", "setting": "Staphylococcus aureus [8]", "value": "inactive"},
      {"measurement": "Activity", "setting": "Staphylococcus aureus [9]", "value": "inactive"},
      {"measurement": "Activity", "setting": "Staphylococcus aureus [10]", "value": "inactive"},
      {"measurement": "Activity", "setting": "Staphylococcus aureus [11]", "value": "inactive"},
      {"measurement": "Activity", "setting": "Staphylococcus aureus [12]", "value": "inactive"},
      {"measurement": "Activity", "setting": "Staphylococcus aureus [13]", "value": "Active"},
      {"measurement": "Activity", "setting": "Staphylococcus aureus [14]", "value": "inactive"},
      {"measurement": "Activity", "setting": "Staphylococcus aureus [15]", "value": "Active"},
      {"measurement": "Activity", "setting": "Staphylococcus aureus [16]", "value": "Active"},
      {"measurement": "Activity", "setting": "Staphylococcus aureus [17]", "value": "inactive"},
      {"measurement": "Activity", "setting": "Staphylococcus aureus [18]", "value": "inactive"},
      {"measurement": "Activity", "setting": "Staphylococcus aureus [19]", "value": "Active"},
      {"measurement": "Activity", "setting": "Staphylococcus aureus [20]", "value": "Active"}
    ]},
    {"smiles": "CN[C@H](CC(C)C)C(=O)N[C@H]1C(=O)N[C@@H](CC(N)=O)C(=O)N[C@H]2C(=O)N[C@H]3C(=O)N[C@H](C(=O)N[C@H](C(=O)O)c4cc(O)cc(O)c4-c4cc3ccc4O)[C@H](O)c3ccc(c(Cl)c3)Oc3cc2cc(c3O[C@@H]2O[C@H](CO)[C@@H](O)[C@H](O)[C@H]2O[C@H]2C[C@](C)(N)[C@H](O)[C@H](C)O2)Oc2ccc(cc2Cl)[C@H]1O", "note": "[VANCOMYCIN]", "values": [
      {"measurement": "Activity", "setting": "Staphylococcus aureus [21]", "value": "Active"},
      {"measurement": "Activity", "setting": "Staphylococcus aureus [22]", "value": "Active"},
      {"measurement": "Activity", "setting": "Staphylococcus aureus [23]", "value": "Active"},
      {"measurement": "Activity", "setting": "Staphylococcus aureus [24]", "value": "Active"},
      {"measurement": "Activity", "setting": "Staphylococcus aureus [25]", "value": "inactive"},
      {"measurement": "Activity", "setting": "Staphylococcus aureus [26]", "value": "inactive"},
      {"measurement": "Activity", "setting": "Staphylococcus aureus [27]", "value": "inactive"},
      {"measurement": "Activity", "setting": "Staphylococcus aureus [28]", "value": "inactive"},
      {"measurement": "Activity", "setting": "Staphylococcus aureus [29]", "value": "inactive"},
      {"measurement": "Activity", "setting": "Staphylococcus aureus [30]", "value": "inactive"},
      {"measurement": "Activity", "setting": "Staphylococcus aureus [31]", "value": "inactive"},
      {"measurement": "Activity", "setting": "Staphylococcus aureus [32]", "value": "Active"},
      {"measurement": "Activity", "setting": "Staphylococcus aureus [33]", "value": "inactive"},
      {"measurement": "Activity", "setting": "Staphylococcus aureus [34]", "value": "inactive"},
      {"measurement": "Activity", "setting": "Staphylococcus aureus [35]", "value": "Active"},
      {"measurement": "Activity", "setting": "Staphylococcus aureus [36]", "value": "Active"},
      {"measurement": "Activity", "setting": "Staphylococcus aureus [37]", "value": 1, "unit": "µg/mL"},
      {"measurement": "Activity", "setting": "Staphylococcus aureus [38]", "value": "inactive"}
    ]}
  ]
}
